From patent EP2717965B1, “USE OF EPSILON-POLY-L-LYSINE FOR INCREASING THE BIOAVAILABILITY OF ANTIMICROBIAL PEPTIDES IN THE HUMAN SKIN” (Beiersdorf AG, priority 2011, dated 2017) come the findings set out here.

Assay [1] has as its system hBD3. The assay can be described thus: hBD3 secretion of cultured human epidermal keratinocytes, ELISA of cell culture supernatant. The format is cell-based, humane epidermale Keratinozyten. The settings on record: 24 Stunden incubation. From the text: In vitro kultivierte humane epidermale Keratinozyten wurden in Zellkultur Medium mit ε-Poly-L-Lysin in einem Konzentrationsbereich von 0,001-0,1% für 24 Stunden inkubiert. Anschließend wurde die Konzentration an hBD3 im Zellkulturüberstand mittels ELISA quantifiziert.
Abb. 1: Dosisabhängige hBD3 Expression von humanen epidermalen Keratinozyten, die über einen Zeitraum von 24 Stunden mit ePL kultiviert wurden.
Abbildung 1 zeigt die dosisabhängige hBD3 Freisetzung von mit ePL inkubierten Keratinozyten. Kontrollzellen zeigten nur eine geringfüge basale hBD3 Menge.

The test system of assay [2] is hBD3. In words: hBD3 in forearm skin rinses of volunteers after topical application, ELISA of eluate. The format is in vivo, Probanden. The note with it: 50 µl of 1% solution in Citratpuffer pH 6 on inner forearm, 4h, rinse with 0,5 ml buffer; control Citratpuffer. From the text:
Abb. […] Als Kontrolle wurde Citratpuffer appliziert. (n=7)

Assay [3] deals with hBD3. The settings on record: 50 µl of 1% solution in Citratpuffer pH 6 on inner forearm, 4h, rinse with 0,5 ml buffer; control Citratpuffer.
Procedure: 50 µl einer 1%igen wässrigen gepufferten Lösung (Citratpuffer pH 6)von ePL wurden auf die Innenseite des Unterarms von Probanden gegeben. Als Kontrolle diente die Applikation von Citratpuffer ohne ePL. Nach 4h Inkubation wurden die Hautareale mit 0,5 ml Pufferlösung gespült und die Konzentration hBD3 im Eluat mit Hilfe eines ELISAs quantifiziert.
Als Kontrolle diente Citratpuffer, in dem die Wirkstoffe gelöst wurden. (n=8)

Like-named read-outs stand apart in the source and are kept apart here.

Turning to “Poly[imino[(2S)-2-amino-1-oxo-1,6-hexandiyl]] [ePL]”, in the assay on hBD3 [1] (0,01% und 0,1% in cell culture medium, compared with 0,001%), the “hBD3 Sekretion” value is reported as “steigerte nochmals die hBD3 Sekretion deutlich”. The “hBD3 Sekretion der Keratinozyten” value in the assay on hBD3 [1] (0,001% in cell culture medium, versus control cells) is reported as “signifikante Erhöhung (p<0,001)”. Moreover, the hBD3-Steigerung entry with hBD3 [2] was “gleichermaßen wirksam”.

`NCCCC[C@H](N)C(=O)O` [Lysin, L-Lysin]: the hBD3-Steigerung entry in the assay with hBD3 [3] is reported as “nicht aber bei der freien Aminosäure eine hBD3-Steigerung”. Same read-out and setting: with `NCC(=O)O` [Glycin] the entry was “nur beim peptidisch verknüpften Lysin”. As for alpha-Polylysin, the hBD3-Steigerung result in the assay with hBD3 [2] is “gleichermaßen wirksam”.
